Tests used:
F656A hERG = F656A hERG (Homo sapiens, UniProt Q12809, F656A); settings: 3 μM, -120 mV, high K+
WT hERG = WT hERG (Homo sapiens, UniProt Q12809); assay: Alanine scanning: wild-type hERG current in HEK-293 cells
Description: The hERG mutations were constructed by site-directed mutagenesis of WT hERG cDNA in pcDNA3.1 vector using the QuickChange Site-Directed Mutagenesis Kit (Stratagene), and the integrity of the construct was verified by DNA sequencing. The WT hERG (generously donated by Professor Ho, Seoul National University, Korea) and mutant channels were transiently expressed in an HEK-293 cell line using Lipofectamine 2000 (Gibco), according to the manufacturer’s recommendations.

rabbit Purkinje fibers = assay: Action potential recording in rabbit Purkinje fiber; settings: for APA / APD50 / APD90 / RMP / Vmax: 1 Hz pacing
Description: This study was conducted in facilities approved by the AAALAC (Association for Assessment and Accreditation of Laboratory Animal Care) International. All procedures were approved by our Institutional Animal Care and Use Committee (IACUC). Female New Zealand white rabbits (1.8–2 kg) were anaesthetized with pentobarbital sodium (45 mg/kg intravenously). Their hearts were rapidly removed and placed in normal Tyrode’s solution: 143 NaCl; 5.4 KCl; 5.0 HEPES (4-(2-hydroxyethyl)-1-piperazineethanesulfonic acid); 0.33 H2PO4; 0.5 MgCl2; 16.6 Glucose; 1.8 CaCl2; pH 7.4 aerated with O2 gas. Purkinje fibers (PFs) were excised from the left ventricle and stored in a chamber superfused with normal Tyrode’s solution at 37.0 ± 0.5 °C and 5 mL/min. Action potentials (APs) were recorded using the conventional intracellular recording technique. The tissue preparation was driven by electrical pulses (duration = 2 ms, frequencies of 1 Hz). The signals of APs were amplified with Geneclamp 500B (Molecular Devices Corporation, Sunnyvale, CA, USA) and recorded by Notocord systems (Croissy-sur-Seine, France) for off-line analysis.

[1] = cited from earlier work

COc1cc2c(Nc3ccc(Br)cc3F)ncnc2cc1OCC1CCN(C)CC1 [Vandetanib]
F656A hERG current (F656A hERG): -1101.9 ± 122.4 | WT hERG current (WT hERG; 3 μM): 208.9 ± 21.6 | inhibition at 3 μM (WT hERG; human, HEK-293 cells transiently expressing wild-type hERG): ~86.4% | APA (rabbit Purkinje fibers; 0.3 μM): 118.0 ± 1.9 mV | APD50 (rabbit Purkinje fibers; 0.3 μM): 218.9 ± 20.3 ms | APD90 (rabbit Purkinje fibers; 0.3 μM): 300.1 ± 21.0 ms | RMP (rabbit Purkinje fibers; 0.3 μM): -82.2 ± 0.4 mV | Vmax (rabbit Purkinje fibers; 0.3 μM): 380.9 ± 82.9 V/s | APD90 increase compared to vehicle control (rabbit Purkinje fibers; 1 μM): 31% | APA (rabbit Purkinje fibers; 1 μM): 118.1 ± 2.1 mV | APD90 (rabbit Purkinje fibers; 1 μM): 354.0 ± 25.2 ms | RMP (rabbit Purkinje fibers; 1 μM): -82.2 ± 1.2 mV | Vmax (rabbit Purkinje fibers; 1 μM): 379.9 ± 91.1 V/s | APD50 increase compared to vehicle control (rabbit Purkinje fibers; 3 μM): 38.9% | APD90 increase compared to vehicle control (rabbit Purkinje fibers; 3 μM): 55.6% | APA (rabbit Purkinje fibers; 3 μM): 118.1 ± 1.5 mV | APD50 (rabbit Purkinje fibers; 3 μM): 289.6 ± 21.4 ms | APD90 (rabbit Purkinje fibers; 3 μM): 417.1 ± 20.6 ms | RMP (rabbit Purkinje fibers; 3 μM): -82.3 ± 2.5 mV | Vmax (rabbit Purkinje fibers; 3 μM): 382.8 ± 64.6 V/s | Effect on RMP, APA, and Vmax (rabbit Purkinje fibers; concentrations up to 3 μM): did not significantly alter | Incidence of asymptomatic QTc prolongation ([1]; Japanese phase I trial): 61% | Patients with side effects such as diarrhea/colitis, rash, nausea, and hypertension ([1]; patients): > 20% | Patients who developed asymptomatic QTc prolongation ([1]; phase I trial in solid tumors): 9% | Incidence of asymptomatic QT prolongation ([1]; phase II trials): 15%
